We go through 14 compounds from ChEMBL document CHEMBL1158751, “Isoneocryptolepine, a synthetic indoloquinoline alkaloid, as an antiplasmodial lead compound” (J Nat Prod, 2005).

Structures are written as SMILES. Counter-ions that a name gives are not always drawn.

The subject of one series is Plasmodium berghei. The series can be described thus: Antiplasmodial activity against Plasmodium berghei ANKA S infected NMRI mice (Mus musculus) as reduced parasitaemia at 50 mg/kg subcutaneous dose for 4 days. Type of series: functional. On the set-up: scale not given: the % may be the effect or the level left.
The subject of series [1] is Trypanosoma brucei rhodesiense. The series can be described thus: Antitrypanosomal activity against Trypanosoma brucei rhodesiense. Type of series: functional, organism-based.
The test system of a further series is L6. The series can be described thus: Cytotoxicity against rat L6 cells. Type of series: cell-based.
A short description of series [2]: Displacement of methyl green dye from DNA.
The next series concerns Plasmodium falciparum. The series can be described thus: microbe, parasite or virus in culture. The following applies: K1, 3 h.
Another series relates to Leishmania donovani. The series can be described thus: Antileishmanial activity against Leishmania donovani. It counts as functional, organism-based.
The subject of the next series is Trypanosoma cruzi. The series can be described thus: Antitrypanosomal activity against Trypanosoma cruzi. Type of series: functional, organism-based.
In another series the test system is Mus musculus. The series is described as follows: Toxicity in Plasmodium berghei ANKA S infected NMRI mice (Mus musculus) assessed as death at 50 mg/kg, intraperitoneally twice a day after day 1 post-infection. The following applies: in vivo, ip. It counts as organism-based. Further details: dose 50 mg/kg, route intraperitoneal.
A short description of series [3]: Selectivity index, IC50 for rat L6 cells to IC50 for chloroquine and pyrimethamine-resistant Plasmodium falciparum K1. Type of series: functional.

Consider `CCN(CC)CCCC(C)Nc1ccnc2cc(Cl)ccc12` (centres undefined) [CHLOROQUINE], for which the Activity in the series on Plasmodium berghei was 99.9%.

Take `Nc1nc(N)nc(Nc2ccc([As]3SCC(CO)S3)cc2)n1` (centres undefined) [MELARSOPROL]: the IC50 in series [1] came to 3.8 ng/mL.

Turning to `Cn1c2nc3ccccc3c-2cc2ccccc21` [NEOCRYPTOLEPINE HYDROCHLORIDE], the 50% inhibitory concentration (IC50) was found to be 3.24 µM in the series with L6 and 93 µM in [2].

Regarding `Cn1c2c3ccccc3nc-2c(-c2c3nc4ccccc4c-3n(C)c3ccccc23)c2ccccc21` [BISCRYPTOLEPINE], the half-maximal inhibitory concentration (IC50) with Plasmodium falciparum is 270 nM; in the series with Leishmania donovani, 8.93 µM; with Trypanosoma cruzi, 3.48 µM; in series [1] it was 2570 nM; with L6, 13.6 µM.

As for `O=C(Cn1ccnc1[N+](=O)[O-])NCc1ccccc1` [BENZNIDAZOLE], the half-inhibitory concentration (IC50) in the series on Trypanosoma cruzi was 1.5 µg/mL.

In the case of `C=C[C@H]1CN2CC[C@H]1C[C@H]2[C@H](O)c1ccnc2ccc(OC)cc12` [QUININE], the half-maximal inhibitory concentration (IC50) in series [2] was more than 360 µM.

With `C[n+]1c2ccccc2cc2[n-]c3ccccc3c21` [CRYPTOLEPINE HYDROCHLORIDE], the concentration for half-maximal inhibition (IC50) with L6 stood at 1.12 µM; in [2] it was 65 µM.

Turning to `CCCCCCCCCCCCCCCCOP(=O)([O-])OCC[N+](C)(C)C` [MILTEFOSINE], the IC50 in the series on Leishmania donovani came out at 0.56 µg/mL.

`C[C@@H]1CC[C@H]2[C@@H](C)C(=O)O[C@@H]3O[C@@]4(C)CC[C@@H]1[C@]32OO4` [ARTEMISININ]: half-maximal inhibition in the series with Plasmodium falciparum (IC50) was put at 0.042 µg/mL.

With `Cn1c2ccccc2c2c[n+](C)c3ccccc3c21.[I-]`, the Activity result in the series on Mus musculus is listed as “Toxic”; with Plasmodium berghei, 38.9%. Further, the IC50 in the series on Plasmodium falciparum was found to be 17 nM; in the series with Leishmania donovani it was 1.15 µM; in the series with Trypanosoma cruzi it was 236 µM; in series [1] it was 370 nM; in the series with L6, 12.7 µM. Also, the “Ratio IC50” value in series [3] is reported as more than 700.

Regarding `C[n+]1cc2[nH]c3ccccc3c2c2ccccc21.[Cl-]` [ISONEOCRYPTOLEPINE HYDROCHLORIDE], the Activity in the series on Plasmodium berghei was found to be 10.3%. Also, the 50% inhibitory concentration (IC50) in the series with L6 was determined as 4.32 µM; in series [2], 124 µM. In series [3], the “Ratio IC50” value is 20.

For `COc1cc([C@@H]2c3cc4c(cc3[C@H](O)[C@H]3COC(=O)[C@H]23)OCO4)cc(OC)c1OC` [PODOFILOX], the half-inhibitory concentration (IC50) with L6 is 0.018 µg/mL.

Take `Cn1c2c3ccccc3nc-2c(-n2c3ccccc3c3nc4ccccc4cc32)c2ccccc21`: the half-inhibitory concentration (IC50) in the series on Leishmania donovani was more than 65 µM; in the series on Trypanosoma cruzi, 84.4 µM; in series [1] it was 96400 nM; in the series on L6, 165 µM.

Consider `Cn1cc2c3ccccc3nc-2c2ccccc21` [ISOCRYPTOLEPINE HYDROCHLORIDE], for which the figures for the IC50 (in the series on L6; in series [2]) were 1.19 µM and 119 µM, respectively.

Broadly, the IC50 is the point on the concentration scale where inhibition reaches its midpoint.
